Data: patent publication US10987359B2, “Oxadiazepinone derivatives and methods of treating hepatitis B infections” (priority 2016, dated 2021)

system: HBV; assay: HBV replication inhibition assay (BDNA assay) in HepG2.2.15 cells; type: cell-based; settings: Hepatitis B virus, HepG2.2.15, HBV replication assay (BDNA assay), HepG2.2.15 cells; read-out: DNA EC50
In short: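 Supernatant encapsidated HBV DNA was measured by bDNA after DNase digestion and proteinase K release. Stably HBV-integrated HepG2.2.15 cells had two 3-day compound exposures (0.5% DMSO). Signals were background-subtracted and normalized to DMSO wells, and EC50 was obtained by four-parameter fit.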

`CN1OC(CNC(=O)CO)Cn2nc3c(c2C1=O)CN(C(=O)Nc1ccc(F)c(Cl)c1)CC3` (centres unmarked) [Compound 206, N-(3-chloro-4-fluorophenyl)-4-((2-hydroxyacetamido)methyl)-2-methyl-1-oxo-1,4,5,8,9,11-hexahydropyrido[4′,3′:3,4]pyrazolo[5,1-d][1,2,5]oxadiazepine-10(2H)-carboxamide] and `CN1OC(CNC(=O)OCC(F)(F)F)Cn2nc3c(c2C1=O)CN(C(=O)Nc1ccc(F)c(Cl)c1)CC3` (centres unmarked) [Compound 207, 2,2,2-trifluoroethyl ((10-((3-chloro-4-fluorophenyl)carbamoyl)-2-methyl-1-oxo-1,2,4,5,8,9,10,11-octahydropyrido[4′,3′:3,4]pyrazolo[5,1-d][1,2,5]oxadiazepin-4-yl)methyl)carbamate] fall in the same range of EC50: 1 to 100 nM for the first, 1 to 100 nM for the second.

Compared with `CCS(=O)(=O)NCC1Cn2nc3c(c2C(=O)N(C)O1)CN(C(=O)Nc1ccc(F)c(Cl)c1)CC3` (centres unmarked) [Compound 208, N-(3-chloro-4-fluorophenyl)-4-(ethylsulfonamidomethyl)-2-methyl-1-oxo-1,4,5,8,9,11-hexahydropyrido[4′,3′:3,4]pyrazolo[5,1-d][1,2,5]oxadiazepine-10(2H)-carboxamide], `CCC(O)C1=NN(C)C(=O)c2c3c(nn2C1)CCN(C(=O)Nc1ccc(F)c(Cl)c1)C3` (centres unmarked) [Compound 229, N-(3-chloro-4-fluorophenyl)-4-(1-hydroxypropyl)-2-methyl-1-oxo-1,2,5,8,9,11-hexahydro-10H-pyrido[4′,3′:3,4]pyrazolo[5,1-d][1,2,5]triazepine-10-carboxamide] is higher in EC50: 1 to 100 nM for the first, 100 to 500 nM for the second.

First: CN1OC(CO)Cn2nc3c(c2C1=O)CC(C(=O)Nc1ccc(F)c(Cl)c1)CC3 (centres unmarked) [Compound 209, N-(3-chloro-4-fluoro-phenyl)-4-(hydroxymethyl)-2-methyl-1-oxo-4,5,8,9,10,11-hexahydro-[1,2,5]oxadiazepino[5,4-b]indazole-10-carboxamide]
Second: CN1N=C(CO)Cn2nc3c(c2C1=O)CN(C(=O)Nc1ccc(F)c(Cl)c1)CC3 [Compound 227, N-(3-chloro-4-fluorophenyl)-4-(hydroxymethyl)-2-methyl-1-oxo-1,2,5,8,9,11-hexahydro-10H-pyrido[4′,3′:3,4]pyrazolo[5,1-d][1,2,5]triazepine-10-carboxamide]
The EC50 of the first is higher: 500 to 1000 nM for the first, 1 to 100 nM for the second.

`C[C@@H]1Cc2nn3c(c2CN1C(=O)Nc1ccc(F)c(C#N)c1)C(=O)N(C)O[C@H](COCC(F)(F)F)C3` [Compound 210, (4S,9R)—N-(3-cyano-4-fluorophenyl)-2,9-dimethyl-1-oxo-4-((2,2,2-trifluoroethoxy)methyl)-1,4,5,8,9,11-hexahydropyrido[4′,3′:3,4]pyrazolo[5,1-d][1,2,5]oxadiazepine-10(2H)-carboxamide] and `C[C@@H]1Cc2nn3c(c2CN1C(=O)Nc1ccc(F)c(C#N)c1)C(=O)N(C)OC(C)(C)C3` [Compound 213, (R)—N-(3-cyano-4-fluorophenyl)-2,4,4,9-tetramethyl-1-oxo-1,4,5,8,9,11-hexahydropyrido[4′,3′:3,4]pyrazolo[5,1-d][1,2,5]oxadiazepine-10(2H)-carboxamide] fall in the same range of EC50: 1 to 100 nM for the first, 1 to 100 nM for the second.

`C[C@@H]1Cc2nn3c(c2CN1C(=O)Nc1ccc(F)c(C(F)(F)F)c1)C(=O)N(C)OC(C)(C)C3` [Compound 214, (5R)—N-[4-Fluoro-3-(trifluoromethyl)phenyl]-5,11,11,13-tetramethyl-14-oxo-12-oxa-4,8,9,13-tetrazatricyclo[7.5.0.0^2.7]tetradeca-1,7-diene-4-carboxamide] and `C[C@@H]1Cc2nn3c(c2CN1C(=O)Nc1ccc(F)c(C(F)(F)F)c1)C(=O)N(C)N(C)CC3` [Compound 225, (R)-N-(4-fluoro-3-(trifluoromethyl)phenyl)-2,3,9-trimethyl-1-oxo-1,2,3,4,5,8,9,11-octahydro-10H-pyrido[4′,3′:3,4]pyrazolo[5,1-d][1,2,5]triazepine-10-carboxamide] fall in the same range of EC50: 1 to 100 nM for the first, 1 to 100 nM for the second.

First: CN1NCCn2nc3c(c2C1=O)CN(C(=O)Nc1ccc(F)c(Cl)c1)CC3 [Compound 216, N-(3-Chloro-4-fluoro-phenyl)-2-methyl-1-oxo-3,4,5,8,9,11-hexahydropyrido[2,3]pyrazolo[2,4-c][1,2,5]triazepine-10-carboxamide]
Second: CN1CCn2nc3c(c2C(=O)N1C)CN(C(=O)Nc1ccc(F)c(Cl)c1)CC3 [Compound 217, N-(3-Chloro-4-fluorophenyl)-2,3-dimethyl-1-oxo-1,2,3,4,5,8,9,11-octahydro-10H-pyrido[4′,3′:3,4]pyrazolo[5,1-d][1,2,5]triazepine-10-carboxamide]
The EC50 of the first is higher: 100 to 500 nM for the first, 1 to 100 nM for the second.

`C=CCN1CCn2nc3c(c2C(=O)N1C)CN(C(=O)Nc1ccc(F)c(C#N)c1)[C@H](C)C3` [Compound 218, (R)-3-allyl-N-(3-cyano-4-fluorophenyl)-2,9-dimethyl-1-oxo-1,2,3,4,5,8,9,11-octahydro-10H-pyrido[4′,3′:3,4]pyrazolo[5,1-d][1,2,5]triazepine-10-carboxamide] and `CCCN1CCn2nc3c(c2C(=O)N1C)CN(C(=O)Nc1ccc(F)c(C#N)c1)[C@H](C)C3` [Compound 219, (R)—N-(3-cyano-4-fluorophenyl)-2,9-dimethyl-1-oxo-3-propyl-1,2,3,4,5,8,9,11-octahydro-10H-pyrido[4′,3′:3,4]pyrazolo[5,1-d][1,2,5]triazepine-10-carboxamide] fall in the same range of EC50: 1 to 100 nM for the first, 1 to 100 nM for the second.

`C[C@@H]1Cc2nn3c(c2CN1C(=O)Nc1ccc(F)c(C#N)c1)C(=O)N(C)N(CCO)CC3` [Compound 220, (R)—N-(3-Cyano-4-fluorophenyl)-3-(2-hydroxyethyl)-2,9-dimethyl-1-oxo-1,2,3,4,5,8,9,11-octahydro-10H-pyrido[4′,3′:3,4]pyrazolo[5,1-d][1,2,5]triazepine-10-carboxamide] and `C[C@@H]1Cc2nn3c(c2CN1C(=O)Nc1ccc(F)c(C#N)c1)C(=O)N(C)N(CCCO)CC3` [Compound 222, (R)—N-(3-Cyano-4-fluorophenyl)-3-(3-hydroxypropyl)-2,9-dimethyl-1-oxo-1,2,3,4,5,8,9,11-octahydro-10H-pyrido[4′,3′:3,4]pyrazolo[5,1-d][1,2,5]triazepine-10-carboxamide] fall in the same range of EC50: 100 to 500 nM for the first, 100 to 500 nM for the second.

First: C[C@@H]1Cc2nn3c(c2CN1C(=O)Nc1ccc(F)c(C#N)c1)C(=O)N(C)N(CC(F)F)CC3 [Compound 221, (R)—N-(3-Cyano-4-fluorophenyl)-3-(2,2-difluoroethyl)-2,9-dimethyl-1-oxo-1,2,3,4,5,8,9,11-octahydro-10H-pyrido[4′,3′:3,4]pyrazolo[5,1-d][1,2,5]triazepine-10-carboxamide]
Second: CC(O)CN1CCn2nc3c(c2C(=O)N1C)CN(C(=O)Nc1ccc(F)c(C#N)c1)[C@H](C)C3 (stereo partly drawn) [Compound 223, (9R)—N-(3-Cyano-4-fluorophenyl)-3-(2-hydroxypropyl)-2,9-dimethyl-1-oxo-1,2,3,4,5,8,9,11-octahydro-10H-pyrido[4′,3′:3,4]pyrazolo[5,1-d][1,2,5]triazepine-10-carboxamide]
The EC50 of the first is lower: 1 to 100 nM for the first, 100 to 500 nM for the second. The first is the more potent here.

`C[C@@H]1Cc2nn3c(c2CN1C(=O)Nc1ccc(F)c(C#N)c1)C(=O)N(C)N(C)CC3` [Compound 224, (R)-N-(3-cyano-4-fluorophenyl)-2,3,9-trimethyl-1-oxo-1,2,3,4,5,8,9,11-octahydro-10H-pyrido[4′,3′:3,4]pyrazolo[5,1-d][1,2,5]triazepine-10-carboxamide] and `C[C@@H]1Cc2nn3c(c2CN1C(=O)Nc1ccc(F)c(C#N)c1)C(=O)N(C)N=C(CO)C3` [Compound 233, (R)-N-(3-cyano-4-fluorophenyl)-4-(hydroxymethyl)-2,9-dimethyl-1-oxo-1,2,5,8,9,11-hexahydro-10H-pyrido[4′,3′:3,4]pyrazolo[5,1-d][1,2,5]triazepine-10-carboxamide] fall in the same range of EC50: 1 to 100 nM for the first, 1 to 100 nM for the second.

First: CN1NC(O)(C(F)(F)F)Cn2nc3c(c2C1=O)CN(C(=O)Nc1ccc(F)c(Cl)c1)CC3 (centres unmarked) [Compound 226, N-(3-chloro-4-fluorophenyl)-4-hydroxy-2-methyl-1-oxo-4-(trifluoromethyl)-1,2,3,4,5,8,9,11-octahydro-10H-pyrido[4′,3′:3,4]pyrazolo[5,1-d][1,2,5]triazepine-10-carboxamide]
Second: CC1=NN(C)C(=O)c2c3c(nn2C1)CCN(C(=O)Nc1ccc(F)c(Cl)c1)C3 [Compound 232, N-(3-chloro-4-fluorophenyl)-2,4-dimethyl-1-oxo-1,2,5,8,9,11-hexahydro-10H-pyrido[4′,3′:3,4]pyrazolo[5,1-d][1,2,5]triazepine-10-carboxamide]
The EC50 of the first is higher: over 1000 nM for the first, 1 to 100 nM for the second.

`CN1N=C(CO)Cn2nc3c(c2C1=O)CN(C(=O)Nc1ccc(F)c(C#N)c1)CC3` [Compound 228, N-(3-cyano-4-fluorophenyl)-4-(hydroxymethyl)-2-methyl-1-oxo-1,2,5,8,9,11-hexahydro-10H-pyrido[4′,3′:3,4]pyrazolo[5,1-d][1,2,5]triazepine-10-carboxamide] and `CC(O)C1=NN(C)C(=O)c2c3c(nn2C1)CCN(C(=O)Nc1ccc(F)c(Cl)c1)C3` (centres unmarked) [Compound 230, N-(3-chloro-4-fluorophenyl)-4-(1-hydroxyethyl)-2-methyl-1-oxo-1,2,5,8,9,11-hexahydro-10H-pyrido[4′,3′:3,4]pyrazolo[5,1-d][1,2,5]triazepine-10-carboxamide] fall in the same range of EC50: 1 to 100 nM for the first, 1 to 100 nM for the second.

First: CN1N=C(C(O)C2CC2)Cn2nc3c(c2C1=O)CN(C(=O)Nc1ccc(F)c(Cl)c1)CC3 (centres unmarked) [Compound 231, N-(3-chloro-4-fluorophenyl)-4-(cyclopropyl(hydroxy)methyl)-2-methyl-1-oxo-1,2,5,8,9,11-hexahydro-10H-pyrido[4′,3′:3,4]pyrazolo[5,1-d][1,2,5]triazepine-10-carboxamide]
Second: C[C@@H]1Cc2nn3c(c2CN1C(=O)Nc1ccc(F)c(Br)c1)C(=O)N(C)N=C(CO)C3 [Compound 234, (R)-N-(3-bromo-4-fluorophenyl)-4-(hydroxymethyl)-2,9-dimethyl-1-oxo-1,2,5,8,9,11-hexahydro-10H-pyrido[4′,3′:3,4]pyrazolo[5,1-d][1,2,5]triazepine-10-carboxamide]
The EC50 of the first is higher: 100 to 500 nM for the first, 1 to 100 nM for the second.
